Experimental data: patent US8785457B2 (Cellzome Limited, priority 2009, dated 2014)
Where two headings read alike, the source gives them in different places.

What was measured:
PI3 Kbeta (PI3 Kb) = target: T1, PI3 Kbeta (PI3 Kb) (Homo sapiens, UniProt P42338); assay: kinobeads assay, PI3Kbeta; format: binding
T1 construct: endogenous in cells; host or cells: cell lysate
Summary of the method: (§1)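 IC50s are fitted to per-kinase dose-response curves. Kinases retained on phenylmorpholin-chromen affinity beads are read by multiplexed immunodetection after elution. Compound, added at a range of concentrations straight into cell lysate, competes for this bead capture.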

PI3Kalpha (PI3Ka) = target: T2, PI3Kalpha (PI3Ka) (Homo sapiens, UniProt P42336); assay: kinobeads assay, PI3Kalpha; format: binding; settings: for IC50 / Inhibition values (IC50) PI3Ka: kinobeads assay, Table 6; for IC50: read-out: Inhibition values (IC50) PI3Ka
T2 construct: endogenous in cells; host or cells: cell lysate
T2 sequence (P42336 whole entry): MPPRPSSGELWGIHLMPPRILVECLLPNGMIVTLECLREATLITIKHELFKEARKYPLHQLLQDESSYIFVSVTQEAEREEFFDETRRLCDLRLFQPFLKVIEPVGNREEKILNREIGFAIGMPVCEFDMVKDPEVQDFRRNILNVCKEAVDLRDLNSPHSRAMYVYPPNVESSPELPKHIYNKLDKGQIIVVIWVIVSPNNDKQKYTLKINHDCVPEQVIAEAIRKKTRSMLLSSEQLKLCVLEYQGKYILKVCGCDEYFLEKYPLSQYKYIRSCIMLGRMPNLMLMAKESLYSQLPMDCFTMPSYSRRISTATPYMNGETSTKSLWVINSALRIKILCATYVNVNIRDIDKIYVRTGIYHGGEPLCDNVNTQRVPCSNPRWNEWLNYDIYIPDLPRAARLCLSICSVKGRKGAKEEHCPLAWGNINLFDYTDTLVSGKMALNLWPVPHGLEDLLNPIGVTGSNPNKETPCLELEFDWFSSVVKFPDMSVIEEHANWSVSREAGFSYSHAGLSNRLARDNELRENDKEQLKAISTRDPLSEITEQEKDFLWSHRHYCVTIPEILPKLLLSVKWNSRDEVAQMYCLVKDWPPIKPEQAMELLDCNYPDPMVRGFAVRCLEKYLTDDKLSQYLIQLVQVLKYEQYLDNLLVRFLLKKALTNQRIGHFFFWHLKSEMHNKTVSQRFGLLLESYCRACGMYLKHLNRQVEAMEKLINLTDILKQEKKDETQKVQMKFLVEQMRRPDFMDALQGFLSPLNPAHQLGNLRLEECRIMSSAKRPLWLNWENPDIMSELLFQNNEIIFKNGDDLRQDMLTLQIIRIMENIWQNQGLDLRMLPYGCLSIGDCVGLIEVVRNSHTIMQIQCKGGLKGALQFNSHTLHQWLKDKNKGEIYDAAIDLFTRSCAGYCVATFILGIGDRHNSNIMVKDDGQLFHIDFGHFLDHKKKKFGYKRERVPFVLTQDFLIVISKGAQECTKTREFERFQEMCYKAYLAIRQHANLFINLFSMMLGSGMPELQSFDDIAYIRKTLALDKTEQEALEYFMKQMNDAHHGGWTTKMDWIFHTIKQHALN
T2 sequence (P27986 whole entry partner): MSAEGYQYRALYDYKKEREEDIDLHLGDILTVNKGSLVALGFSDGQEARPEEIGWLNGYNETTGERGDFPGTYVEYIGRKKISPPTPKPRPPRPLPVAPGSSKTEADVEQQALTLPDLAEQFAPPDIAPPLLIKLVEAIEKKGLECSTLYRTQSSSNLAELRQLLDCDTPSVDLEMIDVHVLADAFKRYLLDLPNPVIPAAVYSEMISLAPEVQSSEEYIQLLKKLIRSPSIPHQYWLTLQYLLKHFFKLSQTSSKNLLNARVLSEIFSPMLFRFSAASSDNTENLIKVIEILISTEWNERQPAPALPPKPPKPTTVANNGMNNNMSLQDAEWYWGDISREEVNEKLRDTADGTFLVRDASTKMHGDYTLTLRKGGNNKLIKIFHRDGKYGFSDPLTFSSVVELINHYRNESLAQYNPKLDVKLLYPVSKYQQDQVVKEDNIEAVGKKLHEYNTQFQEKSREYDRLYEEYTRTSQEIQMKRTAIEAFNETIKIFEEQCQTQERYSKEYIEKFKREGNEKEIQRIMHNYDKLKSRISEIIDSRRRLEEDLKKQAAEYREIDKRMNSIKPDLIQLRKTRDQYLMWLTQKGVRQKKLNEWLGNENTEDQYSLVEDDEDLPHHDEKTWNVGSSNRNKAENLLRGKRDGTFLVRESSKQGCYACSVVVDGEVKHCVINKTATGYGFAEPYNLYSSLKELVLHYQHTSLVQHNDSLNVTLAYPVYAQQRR
Summary of the method: as §1

[1] = system: S6RP serine-240/244 phosphorylation; assay: In vitro Phospho-S6 cellular assay (pS6RP S240/244) in HEK293T/17 cells; format: cell-based; settings: Homo sapiens, 2 hours, read-out: pS6 IC50
Source text: Activation of mTOR signaling results in phosphorylation of several downstream targets. In cells, mTOR exists in two different protein complexes. The mTOR Complex-1 (mTORC1) phosphorylates and activates S6 Kinase 1 (S6K1) and S6 Kinase 2 (S6K2) (also known as p70S6K) which then phosphorylate S6 Ribosomal Protein (S6RP) (also known as RPS6)3. S6RP is phosphorylated on serine 235, serine 236, serine 240 and serine 244 by both pS6K1 and pS6K2. The mTOR Complex-2 (mTORC2) phosphorylates AKT on serine 473 which activates the AKT signaling pathway.
The assay measures a test compound's inhibition of S6RP serine-240/244 phosphorylation and inhibition of Akt serine-473 phosphorylation in human embryonic kidney derived HEK293T/17 cells (ATCC CRL-11268).
The HEK293T/17 cell line is maintained in DMEM media (Invitrogen catalogue number 41965-039) supplemented with 10% FCS at 37° C. in a 5% CO2 humidified incubator.
Cells are seeded in 96-well plates at 40,000 cells/well (pS6RP S240/244 assay) or 80,000 cells/well (pAkt S473 assay) in 90 μl growth media (DMEM, 2% FCS). Plates are incubated for 1 hour in a humidified incubator to allow the cells to adhere. Cells are treated with 8 concentrations of test compounds or DMSO alone for controls (final DMSO concentration 0.1%) and incubated at 37° C. for 2 hours. Then 20 μl of 5× concentrated lysis buffer (750 mM NaCl, 100 mM Tris pH7.4, 5 mM ADTA, 5 mM EGTA, 5% Triton X-100) is added, plates are sealed and incubated for 15 minutes at 4° C. with gentle shaking. After cell lysis, 25 μl cell lysate is transferred to a MesoScale plate coated with an antibody to pS6RP Ser240/244 (MesoScale Discovery K150DGD-3) or an antibody to pAkt Ser 473 (MesoScale Discovery K151DGD-3). Plates have been blocked before by incubation with 150 μl MesoScale Discovery Blocking Solution-A for 1 hour at room temperature followed by washing with 150 μl 1× Tris wash buffer per well. After the transfer of the cell lysate to the MSD plate, the pS6RP (or pAkt) protein is captured on the coated antibody by incubation at room temperature for 1 hour with gentle shaking. After the capture step the plate is washed three times with 150 μl of 1× Tris wash buffer per well. Then 25 μl detection antibody conjugated with a Sulfo-Tag is added and incubated for 1 hour at room temperature with gentle shaking. Subsequently the antibody solution is removed and the plate is washed 3 times with 150 μl×Tris wash buffer per well and 150 μl Read buffer is added. The plates are analysed on a MSD 2400 Plate Reader (MesoScale Discovery). Data analysis is performed using nonlinear regression for a sigmoidal dose-response with a variable slope.

[2] = kinobeads assay, Table 6, read-out: Inhibition values (IC50) PI3Kb

T1 sequence (P42338 whole entry): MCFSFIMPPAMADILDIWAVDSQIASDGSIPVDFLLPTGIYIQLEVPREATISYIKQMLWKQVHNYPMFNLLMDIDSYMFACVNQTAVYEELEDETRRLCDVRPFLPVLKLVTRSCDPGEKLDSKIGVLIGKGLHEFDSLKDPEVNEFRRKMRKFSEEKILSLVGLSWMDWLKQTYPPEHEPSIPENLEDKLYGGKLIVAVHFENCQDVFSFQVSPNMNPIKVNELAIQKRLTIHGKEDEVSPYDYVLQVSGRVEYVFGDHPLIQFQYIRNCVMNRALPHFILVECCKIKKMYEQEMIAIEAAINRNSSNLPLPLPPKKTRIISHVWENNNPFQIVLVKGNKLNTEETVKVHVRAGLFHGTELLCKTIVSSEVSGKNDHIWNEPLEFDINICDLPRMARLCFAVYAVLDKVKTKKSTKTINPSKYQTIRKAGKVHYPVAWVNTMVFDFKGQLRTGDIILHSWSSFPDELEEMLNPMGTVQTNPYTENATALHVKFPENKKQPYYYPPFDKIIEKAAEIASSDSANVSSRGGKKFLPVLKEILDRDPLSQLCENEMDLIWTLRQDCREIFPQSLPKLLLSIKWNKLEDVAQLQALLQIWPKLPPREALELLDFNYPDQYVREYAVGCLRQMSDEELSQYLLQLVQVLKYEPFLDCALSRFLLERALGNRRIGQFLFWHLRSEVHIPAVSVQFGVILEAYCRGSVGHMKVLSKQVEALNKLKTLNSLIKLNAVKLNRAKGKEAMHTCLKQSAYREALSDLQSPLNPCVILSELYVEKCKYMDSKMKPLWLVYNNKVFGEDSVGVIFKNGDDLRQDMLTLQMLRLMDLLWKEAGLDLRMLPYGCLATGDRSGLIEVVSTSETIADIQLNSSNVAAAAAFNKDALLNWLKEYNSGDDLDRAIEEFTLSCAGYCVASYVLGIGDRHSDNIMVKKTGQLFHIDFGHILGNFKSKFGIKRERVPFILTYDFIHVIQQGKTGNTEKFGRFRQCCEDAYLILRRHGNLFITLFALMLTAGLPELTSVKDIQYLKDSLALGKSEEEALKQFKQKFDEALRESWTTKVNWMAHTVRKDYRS
T1 sequence (P27986 whole entry partner): as the sequence (P27986 whole entry partner) above

Row | IC50 (PI3 Kbeta (PI3 Kb); [2]) [µM] | IC50 (PI3Kalpha (PI3Ka)) [µM] | IC50 [1] [nM] | Inhibition values (IC50) PI3Ka (PI3Kalpha (PI3Ka)) | IC50 (PI3 Kbeta (PI3 Kb); Further Kinobeads Data, read-out: PI3Kb) [µM] | PI3Ka (PI3Kalpha (PI3Ka); Further Kinobeads Data) | SMILES
1 | > 10 | 1 to 10 | 111 |  |  |  | CCNC(=O)Nc1ccc(-c2nc3c(c(N4CCOC[C@@H]4C)n2)CN(C(=O)C(C)C)C3)cc1 [Example 21, (S)-1-ethyl-3-(4-(6-isobutyryl-4-(3-methylmorpholino)-6,7-dihydro-5H-pyrrolo[3,4-d]pyrimidin-2-yl)phenyl)urea]
2 | > 10 | 1 to 10 | 115 |  |  |  | CCNC(=O)Nc1ccc(-c2nc3c(c(N4CCOC[C@@H]4C)n2)CN(C(=O)C2CC2)C3)cc1 [Example 23, (S)-1-(4-(6-(cyclopropanecarbonyl)-4-(3-methylmorpholino)-6,7-dihydro-5H-pyrrolo[3,4-d]pyrimidin-2-yl)phenyl)-3-ethylurea]
3 | 1 to 10 | 1 to 10 | 24 |  |  |  | CCNC(=O)Nc1ccc(-c2nc3c(c(N4CCOC[C@@H]4C)n2)CCN(CC)C3)cc1 [Example 27, (S)-1-ethyl-3-(4-(7-ethyl-4-(3-methylmorpholino)-5,6,7,8-tetrahydropyrido[3,4-d]pyrimidin-2-yl)phenyl)urea]
4 | > 10 |  | 37 | D (D >10 μM) |  |  | CCNC(=O)Nc1ccc(-c2nc3c(c(N4CCOC[C@@H]4C)n2)CCN(C)C3)cc1 [Example 35, (S)-1-ethyl-3-(4-(7-methyl-4-(3-methylmorpholino)-5,6,7,8-tetrahydropyrido[3,4-d]pyrimidin-2-yl)phenyl)urea]
5 | > 10 |  | 32 | D (D >10 μM) |  |  | CCNC(=O)Nc1ccc(-c2nc3c(c(N4CCOC[C@@H]4C)n2)CCN(C(=O)C2CC2)C3)cc1 [Example 56, (S)-1-(4-(7-(cyclopropanecarbonyl)-4-(3-methylmorpholino)-5,6,7,8-tetrahydropyrido[3,4-d]pyrimidin-2-yl)phenyl)-3-ethylurea]
6 | > 10 |  | 32 | D (D >10 μM) |  |  | CCNC(=O)Nc1ccc(-c2nc3c(c(N4CCOC[C@@H]4C)n2)CCN(C(=O)C(C)C)C3)cc1 [Example 57, (S)-1-ethyl-3-(4-(7-isobutyryl-4-(3-methylmorpholino)-5,6,7,8-tetrahydropyrido[3,4-d]pyrimidin-2-yl)phenyl)urea]

More lines, now with the values behind:

Row | SMILES | IC50 (PI3 Kbeta (PI3 Kb); [2]) [µM] | IC50 (PI3Kalpha (PI3Ka)) [µM] | IC50 [1] [nM] | Inhibition values (IC50) PI3Ka (PI3Kalpha (PI3Ka)) | IC50 (PI3 Kbeta (PI3 Kb); Further Kinobeads Data, read-out: PI3Kb) [µM] | PI3Ka (PI3Kalpha (PI3Ka); Further Kinobeads Data)
7 | CCNC(=O)Nc1ccc(-c2nc3c(c(N4CCOC[C@@H]4C)n2)CCN(C(=O)c2ccc(F)cc2)C3)cc1 [Example 24, (S)-1-ethyl-3-(4-(7-(4-fluorobenzoyl)-4-(3-methylmorpholino)-5,6,7,8-tetrahydropyrido[3,4-d]pyrimidin-2-yl)phenyl)urea] | > 10 |  | 126 | D (D >10 μM) |  | 
8 | C[C@H]1COCCN1c1nc(-c2ccc(NC(=O)NC3CC3)cc2)nc2c1CN(CC(C)(C)C)C2 [Example 25, (S)-1-cyclopropyl-3-(4-(4-(3-methylmorpholino)-6-neopentyl-6,7-dihydro-5H-pyrrolo[3,4-d]pyrimidin-2-yl)phenyl)urea] | > 10 |  | 98 | D (D >10 μM) |  | 
9 | CCNC(=O)Nc1ccc(-c2nc3c(c(N4CCOC[C@@H]4C)n2)CN(CC2CC2)C3)cc1 [Example 28, (S)-1-(4-(6-(cyclopropylmethyl)-4-(3-methylmorpholino)-6,7-dihydro-5H-pyrrolo[3,4-d]pyrimidin-2-yl)phenyl)-3-ethylurea] | > 10 |  | 72 | D (D >10 μM) |  | 
10 | CCNC(=O)Nc1ccc(-c2nc3c(c(N4CCOC[C@@H]4C)n2)CN(Cc2ccc(F)cc2)C3)cc1 [Example 29, (S)-1-ethyl-3-(4-(6-(4-fluorobenzyl)-4-(3-methylmorpholino)-6,7-dihydro-5H-pyrrolo[3,4-d]pyrimidin-2-yl)phenyl)urea] | > 10 |  | 130 | D (D >10 μM) |  | 
11 | CCOC(=O)N1Cc2nc(-c3ccc(NC(=O)NC4CC4)cc3)nc(N3CCOC[C@@H]3C)c2C1 [Example 34, (S)-ethyl 2-(4-(3-cyclopropylureido)phenyl)-4-(3-methylmorpholino)-5H-pyrrolo[3,4-d]pyrimidine-6(7H)-carboxylate] | > 10 |  | 49 | D (D >10 μM) |  | 
12 | CCNC(=O)Nc1ccc(-c2nc3c(c(N4CCOC[C@@H]4C)n2)CCN(CC2CC2)C3)cc1 [Example 37, (S)-1-(4-(7-(cyclopropylmethyl)-4-(3-methylmorpholino)-5,6,7,8-tetrahydropyrido[3,4-d]pyrimidin-2-yl)phenyl)-3-ethylurea] | > 10 |  | 86 | D (D >10 μM) |  | 
13 | C[C@H]1COCCN1c1nc(-c2ccc(NC(=O)NC3CC3)cc2)nc2c1CCN(CC1CC1)C2 [Example 40, (S)-1-cyclopropyl-3-(4-(7-(cyclopropylmethyl)-4-(3-methylmorpholino)-5,6,7,8-tetrahydropyrido[3,4-d]pyrimidin-2-yl)phenyl)urea] | 1 to 10 | 1 to 10 | 70 |  |  | 
14 | C[C@H]1COCCN1c1nc(-c2ccc(NC(=O)NC3CC3)cc2)nc2c1CCN(CC(C)(C)C)C2 [Example 41, (S)-1-cyclopropyl-3-(4-(4-(3-methylmorpholino)-7-neopentyl-5,6,7,8-tetrahydropyrido[3,4-d]pyrimidin-2-yl)phenyl)urea] | > 10 |  | 120 | D (D >10 μM) |  | 
15 | CC(C)CN1CCc2c(nc(-c3ccc(NC(=O)NC4CC4)cc3)nc2N2CCOC[C@@H]2C)C1 [Example 42, (S)-1-cyclopropyl-3-(4-(7-isobutyl-4-(3-methylmorpholino)-5,6,7,8-tetrahydropyrido[3,4-d]pyrimidin-2-yl)phenyl)urea] | > 10 |  | 104 | D (D >10 μM) |  | 
16 | CC(C)N1CCc2c(nc(-c3ccc(NC(=O)NC4CC4)cc3)nc2N2CCOC[C@@H]2C)C1 [Example 43, (S)-1-cyclopropyl-3-(4-(7-isopropyl-4-(3-methylmorpholino)-5,6,7,8-tetrahydropyrido[3,4-d]pyrimidin-2-yl)phenyl)urea] | 1 to 10 | 1 to 10 | 71 |  |  | 
17 | C[C@H]1COCCN1c1nc(-c2ccc(NC(=O)NC3CC3)cc2)nc2c1CN(C(=O)C(C)(C)C)C2 [Example 45, (S)-1-cyclopropyl-3-(4-(4-(3-methylmorpholino)-6-pivaloyl-6,7-dihydro-5H-pyrrolo[3,4-d]pyrimidin-2-yl)phenyl)urea] | > 10 |  | 63 | D (D >10 μM) |  | 
18 | C[C@H]1COCCN1c1nc(-c2ccc(NC(=O)Nc3ccc(F)cc3)cc2)nc2c1CN(C)C2 [Example 52, (S)-1-(4-fluorophenyl)-3-(4-(6-methyl-4-(3-methylmorpholino)-6,7-dihydro-5H-pyrrolo[3,4-d]pyrimidin-2-yl)phenyl)urea] | > 10 |  | 90 | D (D >10 μM) |  | 
19 | CCNC(=O)Nc1cc(F)c(-c2nc3c(c(N4CCOC[C@@H]4C)n2)CN(C(=O)OCC)C3)cc1F [Example 141, (S)-ethyl 2-(4-(3-ethylureido)-2,5-difluorophenyl)-4-(3-methylmorpholino)-5H-pyrrolo[3,4-d]pyrimidine-6(7H)-carboxylate] |  |  | 838 |  | > 10 | D (D >10 μM)
